From PubChem BioAssay (NCI)
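Assay format: 96-well plates, 48-hour exposure. TGI: total growth inhibition.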

Assays:
Test in all cases: NCI anticancer screen, dose series, 48 h
786-0 renal = system: 786-0 renal
A498 renal = system: A498 renal
A549 NSCLC = system: A549 NSCLC
ACHN renal = system: ACHN renal
CAKI-1 renal = system: CAKI-1 renal
CCRF-CEM leukemia = system: CCRF-CEM leukemia
COLO 205 colon = system: COLO 205 colon
DU-145 prostate = system: DU-145 prostate
EKVX NSCLC = system: EKVX NSCLC
HCC-2998 colon = system: HCC-2998 colon
HCT-116 colon = system: HCT-116 colon
HCT-15 colon = system: HCT-15 colon
HOP-62 NSCLC = system: HOP-62 NSCLC
HOP-92 NSCLC = system: HOP-92 NSCLC
HS 578T breast = system: HS 578T breast
HT29 colon = system: HT29 colon
IGROV1 ovarian = system: IGROV1 ovarian
K-562 leukemia = system: K-562 leukemia
KM12 colon = system: KM12 colon
M14 melanoma = system: M14 melanoma
MALME-3M melanoma = system: MALME-3M melanoma
MDA-MB-231 breast = system: MDA-MB-231 breast
MDA-MB-435 = system: MDA-MB-435
MDA-N = system: MDA-N
MOLT-4 leukemia = system: MOLT-4 leukemia
NCI-H23 lung = system: NCI-H23 lung
NCI-H460 lung = system: NCI-H460 lung
NCI-H522 lung = system: NCI-H522 lung
NCI/ADR-RES ovarian = system: NCI/ADR-RES ovarian
OVCAR-3 ovarian = system: OVCAR-3 ovarian
OVCAR-4 ovarian = system: OVCAR-4 ovarian
OVCAR-5 ovarian = system: OVCAR-5 ovarian
PC-3 prostate = system: PC-3 prostate
RPMI-8226 leukemia = system: RPMI-8226 leukemia
RXF 393 renal = system: RXF 393 renal
SF-295 CNS = system: SF-295 CNS
SK-MEL-2 melanoma = system: SK-MEL-2 melanoma
SK-MEL-28 melanoma = system: SK-MEL-28 melanoma
SK-MEL-5 melanoma = system: SK-MEL-5 melanoma
SK-OV-3 ovarian = system: SK-OV-3 ovarian
SNB-19 CNS = system: SNB-19 CNS
SW-620 colon = system: SW-620 colon
T-47D breast = system: T-47D breast
U251 CNS = system: U251 CNS
UACC-257 melanoma = system: UACC-257 melanoma
UACC-62 melanoma = system: UACC-62 melanoma
UO-31 renal = system: UO-31 renal
BT-549 breast = system: BT-549 breast
HL-60(TB) leukemia = system: HL-60(TB) leukemia
MCF7 breast = system: MCF7 breast
NCI-H226 lung = system: NCI-H226 lung
OVCAR-8 ovarian = system: OVCAR-8 ovarian
SF-268 CNS = system: SF-268 CNS
SF-539 CNS = system: SF-539 CNS
SN12C renal = system: SN12C renal
SNB-75 CNS = system: SNB-75 CNS
SR leukemia = system: SR leukemia
TK-10 renal = system: TK-10 renal

Question: For `COc1cc2c[n+]3c4c(c2c(OC)c1OC)CCCC4CC3` (stereo not given), which TGI (786-0 renal) is on record?
Answer: The TGI was over 100 µM.

Question: And the TGI (A498 renal)?
Answer: Its TGI is over 100 µM.

Question: And the TGI (A549 NSCLC)?
Answer: Its TGI is over 100 µM.

Question: And the TGI (ACHN renal)?
Answer: Its TGI is over 100 µM.

Question: What about the TGI (CAKI-1 renal) of the same molecule?
Answer: Its TGI is over 100 µM.

Question: What about the TGI (CCRF-CEM leukemia) of the same molecule?
Answer: Its TGI is over 100 µM.

Question: What about the TGI (COLO 205 colon) of the same molecule?
Answer: Its TGI is over 100 µM.

Question: What about the TGI (DU-145 prostate) of the same molecule?
Answer: The TGI was over 100 µM.

Question: And the TGI (EKVX NSCLC)?
Answer: The TGI was over 100 µM.

Question: And the TGI (HCC-2998 colon)?
Answer: The TGI was over 100 µM.

Question: And the TGI (HCT-116 colon)?
Answer: The TGI was over 100 µM.

Question: And the TGI (HCT-15 colon)?
Answer: The TGI was over 100 µM.

Question: What about the TGI (HOP-62 NSCLC) of the same molecule?
Answer: Its TGI is over 100 µM.

Question: What about the TGI (HOP-92 NSCLC) of the same molecule?
Answer: The TGI was over 100 µM.

Question: And the TGI (HS 578T breast)?
Answer: The TGI was 62.3 µM.

Question: What about the TGI (HT29 colon) of the same molecule?
Answer: Its TGI is over 100 µM.

Question: And the TGI (IGROV1 ovarian)?
Answer: Its TGI is over 100 µM.

Question: What about the TGI (K-562 leukemia) of the same molecule?
Answer: Its TGI is over 100 µM.

Question: What about the TGI (KM12 colon) of the same molecule?
Answer: The TGI was over 100 µM.

Question: What about the TGI (M14 melanoma) of the same molecule?
Answer: The TGI was over 100 µM.

Question: And the TGI (MALME-3M melanoma)?
Answer: The TGI was 46.9 µM.

Question: And the TGI (MDA-MB-231 breast)?
Answer: The TGI was over 100 µM.

Question: And the TGI (MDA-MB-435)?
Answer: The TGI was over 100 µM.

Question: And the TGI (MDA-N)?
Answer: The TGI was over 100 µM.

Question: What about the TGI (MOLT-4 leukemia) of the same molecule?
Answer: Its TGI is over 100 µM.

Question: What about the TGI (NCI-H23 lung) of the same molecule?
Answer: The TGI was over 100 µM.

Question: And the TGI (NCI-H460 lung)?
Answer: The TGI was over 100 µM.

Question: What about the TGI (NCI-H522 lung) of the same molecule?
Answer: The TGI was over 100 µM.

Question: What about the TGI (NCI/ADR-RES ovarian) of the same molecule?
Answer: The TGI was over 100 µM.

Question: And the TGI (OVCAR-3 ovarian)?
Answer: Its TGI is over 100 µM.

Question: And the TGI (OVCAR-4 ovarian)?
Answer: The TGI was over 100 µM.

Question: What about the TGI (OVCAR-5 ovarian) of the same molecule?
Answer: Its TGI is over 100 µM.

Question: What about the TGI (PC-3 prostate) of the same molecule?
Answer: The TGI was over 100 µM.

Question: What about the TGI (RPMI-8226 leukemia) of the same molecule?
Answer: Its TGI is over 100 µM.

Question: What about the TGI (RXF 393 renal) of the same molecule?
Answer: The TGI was over 100 µM.

Question: What about the TGI (SF-295 CNS) of the same molecule?
Answer: The TGI was over 100 µM.

Question: And the TGI (SK-MEL-2 melanoma)?
Answer: The TGI was over 100 µM.

Question: What about the TGI (SK-MEL-28 melanoma) of the same molecule?
Answer: The TGI was over 100 µM.

Question: And the TGI (SK-MEL-5 melanoma)?
Answer: Its TGI is 46.9 µM.

Question: What about the TGI (SK-OV-3 ovarian) of the same molecule?
Answer: The TGI was over 100 µM.

Question: And the TGI (SNB-19 CNS)?
Answer: The TGI was over 100 µM.

Question: And the TGI (SW-620 colon)?
Answer: The TGI was over 100 µM.

Question: What about the TGI (T-47D breast) of the same molecule?
Answer: The TGI was over 100 µM.

Question: And the TGI (U251 CNS)?
Answer: The TGI was over 100 µM.

Question: What about the TGI (UACC-257 melanoma) of the same molecule?
Answer: Its TGI is over 100 µM.

Question: What about the TGI (UACC-62 melanoma) of the same molecule?
Answer: The TGI was over 100 µM.

Question: What about the TGI (UO-31 renal) of the same molecule?
Answer: The TGI was over 100 µM.

Question: Which TGI (786-0 renal) does the source give for `O=C1/C(=C/c2ccccc2)Oc2cc(O)ccc21` here?
Answer: Its TGI is over 100 µM.

Question: What about the TGI (A549 NSCLC) of the same molecule?
Answer: Its TGI is over 100 µM.

Question: What about the TGI (ACHN renal) of the same molecule?
Answer: Its TGI is over 100 µM.

Question: And the TGI (BT-549 breast)?
Answer: The TGI was over 100 µM.

Question: What about the TGI (CAKI-1 renal) of the same molecule?
Answer: The TGI was over 100 µM.

Question: What about the TGI (CCRF-CEM leukemia) of the same molecule?
Answer: Its TGI is over 100 µM.

Question: What about the TGI (COLO 205 colon) of the same molecule?
Answer: Its TGI is over 100 µM.

Question: And the TGI (DU-145 prostate)?
Answer: Its TGI is over 100 µM.

Question: What about the TGI (EKVX NSCLC) of the same molecule?
Answer: Its TGI is over 100 µM.

Question: What about the TGI (HCC-2998 colon) of the same molecule?
Answer: The TGI was over 100 µM.

Question: And the TGI (HCT-116 colon)?
Answer: The TGI was over 100 µM.

Question: And the TGI (HCT-15 colon)?
Answer: Its TGI is over 100 µM.

Question: What about the TGI (HL-60(TB) leukemia) of the same molecule?
Answer: Its TGI is over 100 µM.

Question: What about the TGI (HOP-62 NSCLC) of the same molecule?
Answer: Its TGI is over 100 µM.

Question: What about the TGI (HS 578T breast) of the same molecule?
Answer: Its TGI is over 100 µM.

Question: What about the TGI (HT29 colon) of the same molecule?
Answer: The TGI was over 100 µM.

Question: What about the TGI (IGROV1 ovarian) of the same molecule?
Answer: Its TGI is over 100 µM.

Question: What about the TGI (K-562 leukemia) of the same molecule?
Answer: The TGI was over 100 µM.

Question: What about the TGI (KM12 colon) of the same molecule?
Answer: The TGI was over 100 µM.

Question: What about the TGI (M14 melanoma) of the same molecule?
Answer: The TGI was over 100 µM.

Question: And the TGI (MCF7 breast)?
Answer: Its TGI is over 100 µM.

Question: And the TGI (MDA-MB-231 breast)?
Answer: The TGI was over 100 µM.

Question: What about the TGI (MDA-MB-435) of the same molecule?
Answer: The TGI was over 100 µM.

Question: And the TGI (MDA-N)?
Answer: The TGI was over 100 µM.

Question: What about the TGI (MOLT-4 leukemia) of the same molecule?
Answer: Its TGI is over 100 µM.

Question: And the TGI (NCI-H226 lung)?
Answer: The TGI was over 100 µM.

Question: What about the TGI (NCI-H23 lung) of the same molecule?
Answer: The TGI was over 100 µM.

Question: And the TGI (NCI-H460 lung)?
Answer: Its TGI is over 100 µM.

Question: What about the TGI (NCI-H522 lung) of the same molecule?
Answer: The TGI was over 100 µM.

Question: What about the TGI (NCI/ADR-RES ovarian) of the same molecule?
Answer: Its TGI is over 100 µM.

Question: And the TGI (OVCAR-3 ovarian)?
Answer: Its TGI is over 100 µM.

Question: What about the TGI (OVCAR-4 ovarian) of the same molecule?
Answer: The TGI was over 100 µM.

Question: And the TGI (OVCAR-8 ovarian)?
Answer: Its TGI is over 100 µM.

Question: And the TGI (PC-3 prostate)?
Answer: The TGI was over 100 µM.

Question: What about the TGI (RPMI-8226 leukemia) of the same molecule?
Answer: Its TGI is over 100 µM.

Question: What about the TGI (RXF 393 renal) of the same molecule?
Answer: The TGI was over 100 µM.

Question: And the TGI (SF-268 CNS)?
Answer: Its TGI is over 100 µM.

Question: What about the TGI (SF-295 CNS) of the same molecule?
Answer: The TGI was over 100 µM.

Question: And the TGI (SF-539 CNS)?
Answer: The TGI was over 100 µM.

Question: What about the TGI (SK-MEL-28 melanoma) of the same molecule?
Answer: Its TGI is over 100 µM.

Question: What about the TGI (SK-MEL-5 melanoma) of the same molecule?
Answer: The TGI was over 100 µM.

Question: What about the TGI (SK-OV-3 ovarian) of the same molecule?
Answer: Its TGI is over 100 µM.

Question: And the TGI (SN12C renal)?
Answer: Its TGI is over 100 µM.

Question: What about the TGI (SNB-19 CNS) of the same molecule?
Answer: Its TGI is over 100 µM.

Question: And the TGI (SNB-75 CNS)?
Answer: The TGI was over 100 µM.

Question: What about the TGI (SR leukemia) of the same molecule?
Answer: The TGI was over 100 µM.

Question: And the TGI (SW-620 colon)?
Answer: Its TGI is over 100 µM.

Question: What about the TGI (T-47D breast) of the same molecule?
Answer: Its TGI is over 100 µM.

Question: What about the TGI (TK-10 renal) of the same molecule?
Answer: The TGI was over 100 µM.

Question: What about the TGI (U251 CNS) of the same molecule?
Answer: Its TGI is over 100 µM.

Question: What about the TGI (UACC-257 melanoma) of the same molecule?
Answer: Its TGI is over 100 µM.

Question: What about the TGI (UACC-62 melanoma) of the same molecule?
Answer: The TGI was over 100 µM.

Question: And the TGI (UO-31 renal)?
Answer: The TGI was over 100 µM.
